Among the data in PubChem BioAssay AID330 (DTP/NCI, 2004) are T/C values, retold here.

Values joined by “and” are separate entries in the source; they are usually repeats but may differ in a detail not shown here. Equal entries are not always repeated. Inconclusive results and toxic doses are left out.

The test system of this assay is P388 leukemia ip, CD2F1 mice, survival T/C. As to the kind of experiment: NCI In Vivo Anticancer Drug Screen. Data for tumor model P388 Leukemia (intraperitoneal) in CD2F1 (CDF1) mice. Conditions: endpoint: median survival time, higher = longer survival. Summed up: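 Mice carrying the transplanted tumor received test compound or vehicle. Survival was recorded in each group, and the value is the treated-group measurement divided by that of the vehicle-treated control group.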

Setting [1] is: dose: 100.0 mg/kg/injection, schedule: Q01DX001 (ip), vehicle: saline with Tween-80.
Setting [2] is: dose: 100.0 mg/kg/injection, schedule: Q01DX009 (ip), vehicle: other.
Where [3] appears, read: dose: 200.0 mg/kg/injection, schedule: Q01DX009 (ip), vehicle: other.
The mark [4] stands for this setting: dose: 50.0 mg/kg/injection, schedule: Q01DX005 (ip), vehicle: saline.
Setting [5] is: dose: 100.0 mg/kg/injection, schedule: Q01DX005 (ip), vehicle: saline.
Setting [6] is: dose: 200.0 mg/kg/injection, schedule: Q01DX005 (ip), vehicle: saline.
Where [7] appears, read: dose: 60.0 mg/kg/injection, schedule: Q01DX005 (ip), vehicle: Klucel (hydroxypropylcellulose) (HPC).
Where [8] appears, read: dose: 120.0 mg/kg/injection, schedule: Q01DX005 (ip), vehicle: Klucel (hydroxypropylcellulose) (HPC).
Where [9] appears, read: dose: 50.0 mg/kg/injection, schedule: Q01DX005 (ip), vehicle: Klucel (hydroxypropylcellulose) (HPC).
Where [10] appears, read: dose: 100.0 mg/kg/injection, schedule: Q01DX005 (ip), vehicle: Klucel (hydroxypropylcellulose) (HPC).
The mark [11] stands for this setting: dose: 200.0 mg/kg/injection, schedule: Q01DX005 (ip), vehicle: Klucel (hydroxypropylcellulose) (HPC).
Where [12] appears, read: dose: 50.0 mg/kg/injection, schedule: Q01DX009 (ip), vehicle: Klucel (hydroxypropylcellulose) (HPC).
The mark [13] stands for this setting: dose: 100.0 mg/kg/injection, schedule: Q01DX009 (ip), vehicle: Klucel (hydroxypropylcellulose) (HPC).
The mark [14] stands for this setting: dose: 100.0 mg/kg/injection, schedule: Q01DX009 (ip), vehicle: saline with Tween-80.
The mark [15] stands for this setting: dose: 200.0 mg/kg/injection, schedule: Q01DX009 (ip), vehicle: saline with Tween-80.

As for `Cc1cccc(Nc2c3ccccc3nc3ccccc23)c1`, the T/C by setting is: (dose: 25.0 mg/kg/injection, schedule: Q01DX001 (ip), vehicle: saline with Tween-80) 95 % of control; (dose: 50.0 mg/kg/injection, schedule: Q01DX001 (ip), vehicle: saline with Tween-80) 100 % of control; under setting [1], 95 % of control.

On to `CS/C(=C\C=Nc1ccccc1)c1ccccc1`, for which the T/C is 103 % of control (dose: 100.0 mg/kg/injection, schedule: Q04DX002 (ip), vehicle: saline with Tween-80); 100 % of control (dose: 200.0 mg/kg/injection, schedule: Q04DX002 (ip), vehicle: saline with Tween-80); 109 % of control (dose: 400.0 mg/kg/injection, schedule: Q04DX002 (ip), vehicle: saline with Tween-80).

Turning to `O=C(O)/C=N/NS(=O)(=O)Cc1ccccc1`, the T/C under setting [2] is 185 % of control; the T/C under setting [3] was 154 % of control and 166 % of control.

With `COC(=O)[C@@]12OC[C@]34[C@H]([C@@H](O)[C@@H]1O)[C@@]1(C)CC(=O)C(O)=C(C)[C@@H]1C[C@H]3OC(=O)[C@H](OC(=O)/C=C(\C)C1(C)CO1)[C@@H]24` (stereo partly specified), the T/C runs as follows: (dose: 0.12 mg/kg/injection, schedule: Q01DX009 (ip), vehicle: saline + alcohol) 119 % of control; (dose: 0.5 mg/kg/injection, schedule: Q01DX009 (ip), vehicle: saline + alcohol) 105 % of control.

Consider `CC(C)NC(=O)C(C)O` (stereo unspecified), for which the T/C is 101 % of control under setting [4], 101 % of control under setting [5] and 101 % of control under setting [6].

In the case of `CCCC[Si](O)(CCCC)CCCC`, the T/C reads like this: (dose: 50.0 mg/kg/injection, schedule: Q01DX009 (ip), vehicle: saline) 100 % of control; (dose: 100.0 mg/kg/injection, schedule: Q01DX009 (ip), vehicle: saline) 102 % of control; (dose: 200.0 mg/kg/injection, schedule: Q01DX009 (ip), vehicle: saline) 100 % of control.

Turning to `[CH3][Sn]([CH3])([Br])[Br].c1ccc(-c2nnc(-c3ccccn3)nc2-c2ccccc2)cc1`, the T/C is, setting by setting: (dose: 30.0 mg/kg/injection, schedule: Q01DX005 (ip), vehicle: Klucel (hydroxypropylcellulose) (HPC)) 107 % of control; under setting [7], 113 % of control and 95 % of control; under setting [8], 100 % of control and 106 % of control.

In the case of `O=c1[nH]c(-c2ccc(Cl)cc2)nc2sc3c(c12)CCCC3`, the T/C under setting [9] is 86 % of control, the T/C under setting [10] is 90 % of control and the T/C under setting [11] is 99 % of control.

Regarding `CCCC(=O)NNCN1C(=O)c2ccccc2C1=O`, the T/C is 89 % of control under setting [9], 86 % of control under setting [10] and 93 % of control under setting [11].

Consider `COc1ccc(Cc2nnc(C)c3c(C)[nH]nc23)cc1OC`, for which the T/C is 92 % of control under setting [12] and 92 % of control under setting [13].

Consider `S=C1N(c2ccccc2)CCN1c1ccccc1`, for which the T/C runs as follows: under setting [7], 101 % of control; under setting [8], 100 % of control; (dose: 240.0 mg/kg/injection, schedule: Q01DX005 (ip), vehicle: Klucel (hydroxypropylcellulose) (HPC)) 94 % of control.

In the case of `CC(C(=O)O)c1ccc2sc(-c3ccccc3)nc2c1` (stereo unspecified), the T/C runs as follows: under setting [12], 102 % of control; under setting [13], 100 % of control; (dose: 200.0 mg/kg/injection, schedule: Q01DX009 (ip), vehicle: Klucel (hydroxypropylcellulose) (HPC)) 98 % of control.

In the case of `S=c1nc[nH]c2c1ncn2C1CCCCO1` (stereo unspecified), the T/C (dose: 15.0 mg/kg/injection, schedule: Q01DX009 (ip), vehicle: saline with Tween-80) is 86 % of control; the T/C (dose: 30.0 mg/kg/injection, schedule: Q01DX009 (ip), vehicle: saline with Tween-80) is 104 % of control; the T/C (dose: 60.0 mg/kg/injection, schedule: Q01DX009 (ip), vehicle: saline with Tween-80) was 113 % of control; the T/C (dose: 62.5 mg/kg/injection, schedule: Q01DX009 (ip), vehicle: Klucel (hydroxypropylcellulose) (HPC)) is 86 % of control; the T/C under setting [14] is 118 % of control; the T/C (dose: 100.0 mg/kg/injection, schedule: Q04DX003 (ip), vehicle: saline with Tween-80) is 91 % of control. The T/C was 108 % of control (dose: 120.0 mg/kg/injection, schedule: Q01DX009 (ip), vehicle: saline with Tween-80); 109 % of control (dose: 125.0 mg/kg/injection, schedule: Q01DX009 (ip), vehicle: Klucel (hydroxypropylcellulose) (HPC)); 104 % of control under setting [15]; 108 % of control (dose: 200.0 mg/kg/injection, schedule: Q04DX003 (ip), vehicle: saline with Tween-80); 90 % of control (dose: 250.0 mg/kg/injection, schedule: Q01DX009 (ip), vehicle: Klucel (hydroxypropylcellulose) (HPC)); 112 % of control (dose: 400.0 mg/kg/injection, schedule: Q04DX003 (ip), vehicle: saline with Tween-80).

For `O=C1NC(O)c2cc(Br)ccc2O1` (stereo unspecified), the T/C reads like this: under setting [9], 100 % of control; under setting [10], 104 % of control; under setting [11], 106 % of control.

As for `CN(C/C(=N/O)c1ccccc1)C(=O)c1ccccc1`, the T/C is, setting by setting: under setting [4], 98 % of control; under setting [5], 100 % of control; under setting [6], 97 % of control.

Consider `CC(C)(C)NC(=O)c1ccc2c(n1)C(=O)N(C(C)(C)C)C2=S`, for which the T/C is, setting by setting: under setting [1], 91 % of control; (dose: 200.0 mg/kg/injection, schedule: Q01DX001 (ip), vehicle: saline with Tween-80) 94 % of control; (dose: 400.0 mg/kg/injection, schedule: Q01DX001 (ip), vehicle: saline with Tween-80) 100 % of control.

For `O=C(NCc1ccccc1)OCc1c(COC(=O)NCc2ccccc2)c(-c2ccc(Cl)c(Cl)c2)n2c1CCC2`, the T/C runs as follows: (dose: 3.13 mg/kg/injection, schedule: Q01DX009 (ip), vehicle: distilled water + Tween-80) 105 % of control; (dose: 6.25 mg/kg/injection, schedule: Q01DX009 (ip), vehicle: distilled water + Tween-80) 151 % of control; (dose: 12.5 mg/kg/injection, schedule: Q01DX009 (ip), vehicle: distilled water + Tween-80) 158 % of control and 161 % of control; (dose: 25.0 mg/kg/injection, schedule: Q01DX009 (ip), vehicle: distilled water + Tween-80) 160 % of control and 174 % of control; (dose: 50.0 mg/kg/injection, schedule: Q01DX009 (ip), vehicle: distilled water + Tween-80) 164 % of control and 182 % of control; (dose: 100.0 mg/kg/injection, schedule: Q01DX009 (ip), vehicle: distilled water + Tween-80) 194 % of control and 196 % of control.

With `Nc1ncnc2c1cnn2CCCl`, the T/C by setting is: (dose: 6.25 mg/kg/injection, schedule: Q01DX009 (ip), vehicle: saline) 95 % of control; (dose: 12.5 mg/kg/injection, schedule: Q01DX009 (ip), vehicle: saline) 100 % of control; (dose: 25.0 mg/kg/injection, schedule: Q01DX009 (ip), vehicle: saline) 100 % of control.

On to `Nc1ccccc1C(=O)NCCCCCCN1CCN(c2cccc(Cl)c2)CC1`, for which the T/C was 92 % of control (dose: 50.0 mg/kg/injection, schedule: Q01DX009 (ip), vehicle: saline with Tween-80); 90 % of control under setting [14]; 96 % of control under setting [15].

As to `Nc1cccc(CC(=O)Nc2ccccc2)c1`, the T/C (dose: 100.0 mg/kg/injection, schedule: Q04DX002 (ip), vehicle: Klucel (hydroxypropylcellulose) (HPC)) is 100 % of control and the T/C (dose: 200.0 mg/kg/injection, schedule: Q04DX002 (ip), vehicle: Klucel (hydroxypropylcellulose) (HPC)) was 97 % of control.

As for `O=[N+]([O-])c1c(Cl)cc(Cl)c(-c2c(Cl)cc(Cl)c([N+](=O)[O-])c2Cl)c1Cl`, the T/C is, setting by setting: (dose: 25.0 mg/kg/injection, schedule: Q01DX009 (ip), vehicle: other) 102 % of control; (dose: 50.0 mg/kg/injection, schedule: Q01DX009 (ip), vehicle: other) 106 % of control; under setting [2], 107 % of control; under setting [3], 106 % of control; (dose: 400.0 mg/kg/injection, schedule: Q01DX009 (ip), vehicle: other) 105 % of control.

Regarding `C=Cc1ccccc1NC(C(=O)O)c1ccccc1` (stereo unspecified), the T/C was 107 % of control (dose: 50.0 mg/kg/injection, schedule: Q01DX005 (ip), vehicle: saline with Tween-80); 106 % of control (dose: 100.0 mg/kg/injection, schedule: Q01DX005 (ip), vehicle: saline with Tween-80); 104 % of control (dose: 200.0 mg/kg/injection, schedule: Q01DX005 (ip), vehicle: saline with Tween-80).
